Reference: paper PMC4288171, “Meclofenamic acid selectively inhibits FTO demethylation of m^6A over ALKBH5” (Nucleic Acids Research, 2014)

Target: T1, FTO (Homo sapiens, UniProt Q9C0B1)
T1 construct: FTOΔN31 (His-tag human FTO with N-terminal 31 residues truncated)
Experiment: crystal structure at […] Å; DSF shift; FP displacement (IC50 […]); IC50 from HPLC demethylation assay on ssDNA
Format: biochemical

T1 sequence (Q9C0B1 32-505): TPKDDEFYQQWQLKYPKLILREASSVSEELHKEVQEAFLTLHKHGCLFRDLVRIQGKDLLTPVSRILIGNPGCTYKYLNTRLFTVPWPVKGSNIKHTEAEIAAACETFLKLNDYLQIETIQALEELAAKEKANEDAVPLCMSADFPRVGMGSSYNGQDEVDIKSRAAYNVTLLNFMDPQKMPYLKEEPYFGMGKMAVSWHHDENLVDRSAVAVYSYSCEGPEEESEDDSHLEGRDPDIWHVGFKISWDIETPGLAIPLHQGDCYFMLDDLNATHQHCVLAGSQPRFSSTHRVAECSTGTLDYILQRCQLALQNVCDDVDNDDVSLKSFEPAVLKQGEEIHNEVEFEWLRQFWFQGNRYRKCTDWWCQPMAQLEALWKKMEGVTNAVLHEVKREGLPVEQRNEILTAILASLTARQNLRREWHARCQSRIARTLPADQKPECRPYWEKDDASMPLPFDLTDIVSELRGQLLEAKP

Q: How did the IC50 turn out when Cc1ccc(Cl)c(Nc2ccccc2C(=O)O)c1Cl [MA, meclofenamic acid] was run?
A: 7 µM
